“And” between values parts separate entries of the source, which are not always exact repeats. Equal values may be shown once. Toxic doses and inconclusive results are not listed.
Test system: BDF1 mice, B16 melanoma ip, median survival T/C
Assay: NCI In Vivo Anticancer Drug Screen. Data for tumor model B16 Melanoma (intraperitoneal) in B6D2F1 (BDF1) mice
Settings: endpoint: median survival time, higher = longer survival
Procedure: The antitumor activity of compounds was measured in mice bearing transplantable tumors. Survival or tumor size were measured and the results are expressed as the measurement made in the treated group (T) divided by the measurement made in the vehicle treated control group (C). The tumor model used in this assay is B16 Melanoma (intraperitoneal) in B6D2F1 (BDF1) mice

[1] = dose: 100.0 mg/kg/injection, schedule: Q01DX009 (ip), vehicle: saline
[2] = dose: 200.0 mg/kg/injection, schedule: Q01DX009 (ip), vehicle: saline
[3] = dose: 50.0 mg/kg/injection, schedule: Q01DX009 (ip), vehicle: Klucel (hydroxypropylcellulose) (HPC)
[4] = dose: 12.5 mg/kg/injection, schedule: Q01DX009 (ip), vehicle: saline with Tween-80
[5] = dose: 25.0 mg/kg/injection, schedule: Q01DX009 (ip), vehicle: saline with Tween-80
[6] = dose: 50.0 mg/kg/injection, schedule: Q01DX009 (ip), vehicle: saline with Tween-80
[7] = dose: 100.0 mg/kg/injection, schedule: Q01DX009 (ip), vehicle: saline with Tween-80
[8] = dose: 200.0 mg/kg/injection, schedule: Q01DX009 (ip), vehicle: saline with Tween-80
[9] = dose: 400.0 mg/kg/injection, schedule: Q01DX009 (ip), vehicle: saline with Tween-80
[10] = dose: 100.0 mg/kg/injection, schedule: Q01DX009 (ip), vehicle: Klucel (hydroxypropylcellulose) (HPC)
[11] = dose: 25.0 mg/kg/injection, schedule: Q01DX009 (ip), vehicle: saline
[12] = dose: 50.0 mg/kg/injection, schedule: Q01DX009 (ip), vehicle: saline

**Q.** For `Clc1ccc2c(c1)C(N1CCOCC1)c1cc(Cl)cc(Cl)c1-2` (configuration not stated), which T/C [1] is on record?
**A.** 102 % of control

**Q.** What about the T/C [2] of the same compound?
**A.** 95 % of control

**Q.** And the T/C (dose: 400.0 mg/kg/injection, schedule: Q01DX009 (ip), vehicle: saline)?
**A.** 90 % of control

**Q.** What about the T/C (dose: 800.0 mg/kg/injection, schedule: Q01DX009 (ip), vehicle: saline) of the same compound?
**A.** 90 % of control

**Q.** For `CCOc1c(Br)cc(Br)cc1/C=N/NS(=O)(=O)c1ccc(C)cc1`, which T/C (dose: 12.5 mg/kg/injection, schedule: Q04DX003 (ip), vehicle: Klucel (hydroxypropylcellulose) (HPC)) is on record?
**A.** 102 % of control

**Q.** And the T/C (dose: 25.0 mg/kg/injection, schedule: Q01DX009 (ip), vehicle: Klucel (hydroxypropylcellulose) (HPC))?
**A.** 91 % of control

**Q.** What about the T/C (dose: 25.0 mg/kg/injection, schedule: Q04DX003 (ip), vehicle: Klucel (hydroxypropylcellulose) (HPC)) of the same compound?
**A.** 107 % of control

**Q.** What about the T/C [3] of the same compound?
**A.** 97 % of control

**Q.** What about the T/C (dose: 50.0 mg/kg/injection, schedule: Q04DX003 (ip), vehicle: Klucel (hydroxypropylcellulose) (HPC)) of the same compound?
**A.** 104 % of control

**Q.** What about the T/C (dose: 170.0 mg/kg/injection, schedule: Q04DX003 (ip), vehicle: Klucel (hydroxypropylcellulose) (HPC)) of the same compound?
**A.** 97 % of control

**Q.** How did the T/C [4] turn out when `O=C(NC1CCCCC1)OCc1c(COC(=O)NC2CCCCC2)c(-c2ccc(Cl)c(Cl)c2)n2c1CCC2` was run?
**A.** 169 % of control

**Q.** What about the T/C [5] of the same compound?
**A.** 214 % of control

**Q.** And the T/C (dose: 25.0 mg/kg/injection, schedule: Q01DX009 (oral), vehicle: saline with Tween-80)?
**A.** 107 % of control

**Q.** What about the T/C [6] of the same compound?
**A.** 290 % of control

**Q.** What about the T/C (dose: 50.0 mg/kg/injection, schedule: Q01DX009 (oral), vehicle: saline with Tween-80) of the same compound?
**A.** 102 % of control

**Q.** And the T/C [7]?
**A.** 304 % of control

**Q.** What about the T/C (dose: 100.0 mg/kg/injection, schedule: Q01DX009 (oral), vehicle: saline with Tween-80) of the same compound?
**A.** 106 % of control

**Q.** And the T/C [8]?
**A.** 153 % of control

**Q.** What about the T/C (dose: 200.0 mg/kg/injection, schedule: Q01DX009 (oral), vehicle: saline with Tween-80) of the same compound?
**A.** 107 % of control

**Q.** And the T/C [9]?
**A.** 91 % of control

**Q.** And the T/C (dose: 400.0 mg/kg/injection, schedule: Q01DX009 (oral), vehicle: saline with Tween-80)?
**A.** 106 % of control

**Q.** What about the T/C (dose: 800.0 mg/kg/injection, schedule: Q01DX009 (oral), vehicle: saline with Tween-80) of the same compound?
**A.** 102 % of control

**Q.** For `CCC1CCCCC1=O` (configuration not stated), which T/C (dose: 44.0 mg/kg/injection, schedule: Q01DX009 (ip), vehicle: saline with Tween-80) is on record?
**A.** 97 % of control

**Q.** And the T/C (dose: 67.0 mg/kg/injection, schedule: Q01DX009 (ip), vehicle: saline with Tween-80)?
**A.** 95 % of control

**Q.** What about the T/C [7] of the same compound?
**A.** 100 % of control

**Q.** What about the T/C (dose: 150.0 mg/kg/injection, schedule: Q01DX009 (ip), vehicle: saline with Tween-80) of the same compound?
**A.** 102 % of control

**Q.** What does the source list for `CCCCOC(=O)c1ccc(NC(=O)Nc2ccccc2Cl)cc1`?
**A.** T/C [4]: 102 % of control; T/C [5]: 102 % of control; T/C [6]: 88 % of control and 100 % of control

**Q.** With `O=c1oc(-c2cccc([N+](=O)[O-])c2)nc2ccccc12` as the compound, how does the T/C [3] read?
**A.** 106 % of control

**Q.** What about the T/C [10] of the same compound?
**A.** 86 % of control

**Q.** What does the source list for `CCN(C)CCN(C)CC`?
**A.** T/C [1]: 95 % of control; T/C [2]: 109 % of control

**Q.** What does the source list for `C#CCN(C)Cc1ccccc1`?
**A.** T/C (dose: 12.5 mg/kg/injection, schedule: Q01DX009 (ip), vehicle: saline): 97 % of control; T/C [11]: 97 % of control; T/C [12]: 100 % of control

**Q.** For `Cc1cnc(/C=N\NC(N)=S)c2cccc(N)c12`, which T/C (dose: 3.12 mg/kg/injection, schedule: Q01DX009 (ip), vehicle: saline with Tween-80) is on record?
**A.** 100 % of control

**Q.** And the T/C (dose: 3.13 mg/kg/injection, schedule: Q01DX009 (ip), vehicle: Klucel (hydroxypropylcellulose) (HPC))?
**A.** 102 % of control

**Q.** What about the T/C (dose: 3.13 mg/kg/injection, schedule: Q01DX009 (ip), vehicle: saline with Tween-80) of the same compound?
**A.** 114 % of control

**Q.** What about the T/C (dose: 6.25 mg/kg/injection, schedule: Q01DX009 (ip), vehicle: Klucel (hydroxypropylcellulose) (HPC)) of the same compound?
**A.** 114 % of control

**Q.** What about the T/C (dose: 6.25 mg/kg/injection, schedule: Q01DX009 (ip), vehicle: saline with Tween-80) of the same compound?
**A.** 103 % of control and 124 % of control

**Q.** And the T/C (dose: 12.5 mg/kg/injection, schedule: Q01DX009 (ip), vehicle: Klucel (hydroxypropylcellulose) (HPC))?
**A.** 115 % of control

**Q.** With `CCCCC(=O)OCC(=O)[C@]1(O)Cc2c(O)c3c(c(O)c2[C@@H](OC2CC(NC(=O)C(F)(F)F)C(O)C(C)O2)C1)C(=O)c1c(OC)cccc1C3=O` (some centres not stated) as the compound, how does the T/C (dose: 7.78 mg/kg/injection, schedule: Q01DX004 (ip), vehicle: other) read?
**A.** 106 % of control

**Q.** And the T/C (dose: 9.38 mg/kg/injection, schedule: Q01DX001 (ip), vehicle: clinical formulation)?
**A.** 111 % of control

**Q.** And the T/C (dose: 13.0 mg/kg/injection, schedule: Q01DX004 (ip), vehicle: other)?
**A.** 115 % of control

**Q.** What about the T/C (dose: 21.6 mg/kg/injection, schedule: Q01DX004 (ip), vehicle: other) of the same compound?
**A.** 122 % of control

**Q.** What about the T/C (dose: 32.0 mg/kg/injection, schedule: Q01DX009 (ip), vehicle: distilled water + Tween-80) of the same compound?
**A.** 180 % of control

**Q.** And the T/C (dose: 36.0 mg/kg/injection, schedule: Q01DX004 (ip), vehicle: other)?
**A.** 122 % of control

**Q.** And the T/C (dose: 64.0 mg/kg/injection, schedule: Q01DX009 (ip), vehicle: distilled water + Tween-80)?
**A.** 158 % of control

**Q.** And the T/C (dose: 75.0 mg/kg/injection, schedule: Q01DX001 (ip), vehicle: clinical formulation)?
**A.** 191 % of control

**Q.** What about the T/C (dose: 128.0 mg/kg/injection, schedule: Q01DX009 (ip), vehicle: distilled water + Tween-80) of the same compound?
**A.** 288 % of control

**Q.** What about the T/C (dose: 150.0 mg/kg/injection, schedule: Q01DX001 (ip), vehicle: clinical formulation) of the same compound?
**A.** 169 % of control and 205 % of control

**Q.** For `CCOC(=O)CCC[P+](c1ccccc1)(c1ccccc1)c1ccccc1`, which T/C (dose: 5.0 mg/kg/injection, schedule: Q01DX009 (ip), vehicle: saline with Tween-80) is on record?
**A.** 117 % of control

**Q.** And the T/C (dose: 20.0 mg/kg/injection, schedule: Q01DX009 (ip), vehicle: saline with Tween-80)?
**A.** 117 % of control

**Q.** And the T/C (dose: 40.0 mg/kg/injection, schedule: Q01DX009 (ip), vehicle: saline with Tween-80)?
**A.** 121 % of control

**Q.** And the T/C (dose: 66.0 mg/kg/injection, schedule: Q01DX009 (ip), vehicle: saline with Tween-80)?
**A.** 116 % of control

**Q.** What about the T/C (dose: 80.0 mg/kg/injection, schedule: Q01DX009 (ip), vehicle: saline with Tween-80) of the same compound?
**A.** 113 % of control

**Q.** And the T/C [7]?
**A.** 100 % of control

**Q.** What about the T/C (dose: 140.0 mg/kg/injection, schedule: Q01DX009 (ip), vehicle: saline with Tween-80) of the same compound?
**A.** 112 % of control

**Q.** What about the T/C (dose: 160.0 mg/kg/injection, schedule: Q01DX009 (ip), vehicle: saline with Tween-80) of the same compound?
**A.** 116 % of control

**Q.** And the T/C (dose: 210.0 mg/kg/injection, schedule: Q01DX009 (ip), vehicle: saline with Tween-80)?
**A.** 104 % of control

**Q.** For `O=C(NCCCCC(NC(=O)c1ccccc1)C(=O)O)OCc1ccccc1` (configuration not stated), which T/C [6] is on record?
**A.** 101 % of control

**Q.** What about the T/C [7] of the same compound?
**A.** 96 % of control

**Q.** And the T/C [8]?
**A.** 95 % of control

**Q.** What about the T/C [9] of the same compound?
**A.** 86 % of control

**Q.** What does the source list for `C=Cc1cc(OC)c2c(c1)c(=O)oc1c2cc(OC)c2c(O)ccc(C3OC(C(C)O)C(O)C3O)c21` (configuration not stated)?
**A.** T/C [10]: 159 % of control; T/C (dose: 400.0 mg/kg/injection, schedule: Q01DX009 (ip), vehicle: Klucel (hydroxypropylcellulose) (HPC)): 113 % of control

**Q.** Which T/C [11] does the source give for `CN(C)c1ncnc2c1ncn2C1OC(CO)C(N)C1O` (configuration not stated) here?
**A.** 111 % of control

**Q.** What about the T/C [12] of the same compound?
**A.** 118 % of control

**Q.** For `CCN(CCCCO)CCc1c[nH]c2ccc(OC)cc12`, which T/C (dose: 9.3 mg/kg/injection, schedule: Q01DX009 (ip), vehicle: saline) is on record?
**A.** 105 % of control

**Q.** And the T/C (dose: 18.75 mg/kg/injection, schedule: Q01DX009 (ip), vehicle: saline)?
**A.** 90 % of control

**Q.** What about the T/C (dose: 37.5 mg/kg/injection, schedule: Q01DX009 (ip), vehicle: saline) of the same compound?
**A.** 97 % of control

**Q.** And the T/C (dose: 75.0 mg/kg/injection, schedule: Q01DX009 (ip), vehicle: saline)?
**A.** 110 % of control

**Q.** How did the T/C [4] turn out when `CC(=O)c1ccc(Oc2ccc(/C(C)=N\N=C(N)N)cc2)cc1` was run?
**A.** 95 % of control

**Q.** What about the T/C [5] of the same compound?
**A.** 92 % of control

**Q.** What does the source list for `COC(=O)C1=CO[C@@H](C)[C@@H]2Cn3ccc4c5ccccc5nc-4c3C[C@H]12`?
**A.** T/C [5]: 94 % of control; T/C [6]: 89 % of control
